Reference: US6881825B1, “Identication of peptides that facilitate uptake and cytoplasmic and/or nuclear transport of proteins, DNA and virues” (University of Pittsburgh of The Commonwealth System of …, priority 1999, dated 2005)
Entries after “also recorded” stand apart in the source; their conditions may differ.

What was measured:
[1] = tested on: Hig-82 cells; experiment: Peptide competition assay for internalization of peptide-conjugated β-gal; format: cell-based, rabbit; settings: for blocking of internalization of peptide-conjugated β-gal by non-biotinylated peptide: FIG. 5, conjugates of peptide 2, 3, 4 and 5, 3 hours at 37° C.
Protocol: A peptide competition assay was carried out to determine the relative efficiency and specificity of the various peptides. The peptides were conjugated to β-gal as described above in Example 4 and incubated with Hig-82 cells grown to 85% confluency in 24 well plates in the presence of non biotinylated peptides for 3 hours at 37° C. in TBS buffer while being gently rotated. The cells were then washed 10 times with TBS buffer, fixed with 4% paraformaldehyde at room temperature for 30 minutes, washed 3 times with TBS buffer, and stained with Xgal, as described above in Example 4, overnight. Cells which stained blue had internalized peptide-conjugated β-gal.

[2] = tested on: Hig-82 cells; experiment: Peptide-β-gal complex internalization, X-gal staining; format: cell-based, rabbit; settings: for transduction/transfer activity of the peptide (in words): as summarised with CD spectra and competition data; for relative strength of internalization of β-gal (concentration needed): FIG. 1B, various concentrations of peptide linked to β-gal, 1:1=150 nM of β-gal
Protocol: (§1) Internalizing peptides 1-6 (SEQ ID Nos:1-6 respectively), which were identified as described above in Example 3, were synthesized, and biotinylated (synthesis and biotinylation performed by the Biotech Center of the University of Pittsburgh). The biotinylated peptides were then conjugated to avidin β-gal or avidin Cy3 at room temperature for 2 hours.
(§2) The peptide conjugates were then added to cells (Hig-82 cells, rabbit synovial cells, human synovial cells, rabbit synovial lining, human primary airway cells HBE 144, human primary islet cells, murine myoblast cells C2C12, dog kidney epithelial cells MDCK, murine fibroblast cells NIH3T3 and murine tumor cells MCA 205 (human synovial cells and human primary airway cells (HBE144) were isolated from patients from the Presbyterian Hospital, University of Pittsburgh by standard techniques for establishing a primary cell culture; human islet cells were provided by the University of Miami and were isolated by standard techniques for establishing a primary cell culture; C2C12, MDCK, 3T3 and MCA205 cells were purchased from ATTC, Bethesda, Md.; all cells were cultured in DMEM and grown to 100% confluency) and incubated while gently rotating at 37° C. for 3 hours with TBS buffer. The cells were then washed 10 times with TBS buffer and fixed with 4% paraformaldehyde at room temperature for 30 minutes. Cells were then washed 3 times with TBS buffer and stained with 1 mg/ml X-gal (Bochringer Mannheim, Indianapolis) at 37° C. overnight for β-gal-conjugated peptides. Cells which were blue indicated the presence of β-gal in the cells. For Cy3-conjugated peptides, fluorescence of the cells as measured by confocal microscopy indicated the ability of the peptide to internalize the Cy3 (a small molecule cargo).
TAT-PTD (YGRKKRRQRRR; SEQ ID NO:21), and a random control peptide (ARPILEHGSDKAT; SEQ ID NO:20). […] In FIG. 1B, various concentrations of peptides linked to β-gal were tested (1:1=150 nM of β-gal).

[3] = tested on: rabbit synovial fibroblasts; experiment: Internalization of Cy3-labeled peptide/M13 phage complex; format: cell-based; settings: FIG. 13D vs control phage
From the text: Therefore, the peptides of the present invention are useful for facilitating the internalization of virus and viral vectors.

[4] = tested on: CD34+/LIN− stem cells; experiment: Transduction with biotin-peptide/avidin-β-gal complex; format: cell-based; settings: FIG. 17
From the text: Peptide 5 is biotin labeled and the β-gal is avidin labeled so that they may be linked together by an avidin/biotin interaction. The cells which stained dark were transduced with the peptide/β-gal complex as indicated by an arrow.

[5] = tested on: NIH3T3 cells; experiment: Peptide-β-gal uptake, X-gal staining; format: cell-based, murine; settings: FIG. 6I
Protocol: as §2, with “Cells which were blue indicated the presence of β-gal in the cells.” left out, “cargo). […]” for “cargo).”

[6] = tested on: Hig-82 cells; experiment: Internalization of peptide-streptavidin-488 complex, fluorescence and confocal microscopy; format: cell-based, rabbit
From the text: See Bayer et al., Histochem. Cytochem. 24:933-939 (1976); Ivanenkov & Menon, Biochim. Biophys. Acta. 1448:463-472 (1999). The use of the 488 flourescent marker allows for analysis of the treated cells by confocal microscopy to determine the exact location of the complexes in the cells.

[7] = tested on: human dendritic cells; experiment: Internalization of peptide5-eGFP fusion protein, fluorescence; format: cell-based; settings: peptide fused to eGFP; FIG. 9F-G
[8] = tested on: HIG82 cells; experiment: Cell viability by MTT assay (OD 570 nm); format: cell-based, rabbit; settings: HIG-82 cells; 100-3.1 μM peptide, three hours; FIG. 14, 15
Protocol: 2×10^5 cells (HIG82, MCA205 or Jurkatt) were seeded into 24 well plates. Forty-eight hours later, 100 μM, 50 μM, 25 μM, 6.25 μM and 3.1 μM of the either the death peptide (SEQ ID NO:24), peptide 5 alone (SEQ ID NO:5) or the apoptotic peptide alone (SEQ ID NO:23) was added to the cells. To check for cell viability, three hours later, the media was aspirated and 1 ml of scrum-free media containing 0.25 mg of MTT was added to each well and incubated for 4 hours at 37° C. MTT-containing media was then removed and 1 ml of absolute isopropanol containing 0.4N HCl was added. Photographs were taken of the plates, then the cells were harvested and any debris was centrifuged. OD as taken at λ=570 nm. Each sample point was performed in triplicate.

[9] = tested on: human β islet primary cells; experiment: Peptide-β-gal uptake, X-gal staining; format: cell-based; settings: FIG. 6F
Protocol: as §2
(§3) FIG. 9A is a schematic representation of the expression construct encoding the peptide5-eGFP fusion protein.

[10] = tested on: MDCK polarized canine kidney cells; experiment: Peptide-β-gal uptake, X-gal staining; format: cell-based; settings: FIG. 6E
Protocol: as §2, §3

[11] = tested on: HBE 144 primary human airway epithelial cells; experiment: Peptide-β-gal uptake, X-gal staining; format: cell-based; settings: FIG. 6D
Protocol: as §2, §3

[12] = tested on: MCA205 murine fibrosarcoma cells; experiment: Peptide-β-gal uptake, X-gal staining; format: cell-based; settings: FIG. 6H
Protocol: as §2, §3

[13] = tested on: C2C12 murine myoblast cells; experiment: Peptide-β-gal uptake, X-gal staining; format: cell-based; settings: FIG. 6G
Protocol: as §2, §3

[14] = tested on: rabbit synovial lining; experiment: In vivo transfer of peptide-conjugated β-gal after injection into rabbit knee; settings: for level of uptake of β-gal into rabbit synovial lining: FIG. 4A, injection into rabbit knee, compared with adenoviral vector encoding β-gal
Protocol: Peptide-β-gal complexes (fusions) were injected into rabbit knee synovial lining, the lining as then removed, washed with wash buffer, fixed with 4% paraformaldehyde, and stained with β-gal.
(§4) Peptide 5 (SEQ ID NO:5) was able to facilitate uptake of β-gal in nearly 100% of the synovial cells in vivo (FIG. 4B).

[15] = tested on: human islets; experiment: Internalization of peptide5-eGFP fusion protein, fluorescence; format: cell-based; settings: peptide fused to eGFP; FIG. 9B-E
[16] = tested on: MCA 205 tumor cells; experiment: Intra-tumoral injection of peptide-β-gal complex, X-gal staining of tumor; format: in vivo, mouse; settings: day 14 subcutaneous MCA-205 tumors, single intra-tumoral injection
Protocol: as §4
To make the nucleic acid encoding the peptide-eGFP fusion depicted in FIG. 9A, PCR was employed using 5′ and 3′ primers that encoded the peptide and a his tag, respectively, and had complimentary sequences to eGFP DNA coding sequences. […] MCA 205 tumor cells (5×10^5 cells) were injected subcutaneously into the flank of a C57/BL6 mouse. At day 14, a single intra-tumoral injection of the peptide β-gal complex was performed. The mice were sacrificed 3 hours post-injection and the tumor tissue was isolated, sectioned and stained with X-gal.

[17] = tested on: human synovial cells; experiment: Peptide-β-gal internalization, X-gal staining; format: cell-based; settings: human (primary) synovial cells; FIG. 3, 6C
Protocol: as §1, §2

[18] = tested on: rabbit synovial cells; experiment: Peptide-β-gal internalization, X-gal staining; format: cell-based; settings: rabbit (primary) synovial cells; FIG. 2, 6B
Protocol: as §1, §2

[19] = FIG. 12, 100 fold excess of competitor

MHKRPTTPSRKM (random peptide library) [peptide 6]
inhibition of uptake of peptide 2 and 3 ([1]; FIG. 12): able to inhibit
transduction/transfer activity of the peptide (in words) [2]: only weakly able to transduce cells
transduction/transfer activity of the peptide (in words) ([2]; listed as SEQ ID NO:6): lower activity

KRIHPRLTRSIR (random peptide library) [peptide 2]
transduction/transfer activity of the peptide (in words) [2]: intermediate activity
internalization of intact M13 phage (and nuclear localization of protein complexes) [3]: able to facilitate internalization and nuclear localization of protein complexes as well as intact M13 phage

RRQRRTSKLMKR (random peptide library) [peptide 5]
transduction of stem cells with β-gal [4]: transduce CD34+/LIN− stem cells
uptake of β-gal [5]: facilitate the uptake of β-gal
internalization of streptavidin-488 complex ([6]; FIG. 13A, biotinylated peptide coupled to streptavidin-488): efficient internalization
nuclear localization of peptide-streptavidin-488 complex ([6]; FIG. 13B, confocal microscopy): significant percentage of the peptide-streptavidin-488 complex being found in the nucleus
internalization of eGFP [7]: facilitate the internalization of EGFP in human dendritic cells
cell viability (MTT, OD570) [8]: did not impair viability
blocking of internalization of peptide-conjugated β-gal by non-biotinylated peptide [1]: blocked the internalization of peptide 2 through peptide 6-conjugated β-gal
inhibition of uptake of TAT-PTD and peptide 5 itself [1, 19]: significantly inhibit
inhibition of uptake of peptides 3, 4 and antennapedia peptide [1, 19]: completely inhibit
relative strength of internalization of β-gal (concentration needed) [2]: effect internalization of β-gal linked thereto at a concentration equal to or less than TAT-PTD
uptake of β-gal ([2]; FIG. 6A, HIG-82 cells): facilitate the uptake of β-gal
transduction/transfer activity of the peptide (in words) [2]: highly active
uptake of β-gal [9]: facilitate the uptake of β-gal
uptake of β-gal [10]: facilitate the uptake of β-gal
uptake of β-gal [11]: facilitate the uptake of β-gal
uptake of β-gal [12]: facilitate the uptake of β-gal
uptake of β-gal [13]: facilitate the uptake of β-gal
level of uptake of β-gal into rabbit synovial lining [14]: highest level of uptake
synovial cells with uptake of β-gal in vivo ([14]; FIG. 4B, histology, eosin counter-stain): ~100%
internalization of intact M13 phage (and nuclear localization of protein complexes) [3]: detected in the treated cells
internalization of eGFP [15]: facilitate internalization of eGFP in human islets
β-gal staining / internalization in murine tumors in vivo [16]: significant β-gal staining; also recorded: facilitate the internalization of β-gal into murine tumor cells in vivo
internalization of β-gal [17]: facilitate the internalization of β-gal into human synovial cells; also recorded: facilitate the uptake of β-gal
internalization of β-gal [18]: facilitate the uptake of β-gal

YGRKKRRQRRR (human) [TAT-PTD, reference compound]
level of uptake of β-gal into rabbit synovial lining [14]: highest level of uptake

KRIIQRILSRNS (random peptide library) [peptide 1]
blocking of internalization of peptide-conjugated β-gal by non-biotinylated peptide [1]: did not block the internalization by any of the peptides
transduction/transfer activity of the peptide (in words) [2]: lower activity
internalization of β-gal [17]: facilitate the internalization of β-gal into human synovial cells
internalization of β-gal [18]: facilitate the internalization of β-gal into rabbit synovial cells

PIRRRKKLRRLK (random peptide library) [peptide 4]
blocking of internalization of peptide-conjugated β-gal by non-biotinylated peptide [1]: blocked the internalization of peptide 2 through peptide 6-conjugated β-gal
transduction/transfer activity of the peptide (in words) [2]: highly active
level of uptake of β-gal into rabbit synovial lining [14]: highest level of uptake
internalization of intact M13 phage (and nuclear localization of protein complexes) [3]: able to facilitate internalization and nuclear localization of protein complexes as well as intact M13 phage

PPRLRKRRQLNM (random peptide library) [peptide 3]
relative strength of internalization of β-gal (concentration needed) [2]: achieved internalization of β-gal at a slightly higher concentration
transduction/transfer activity of the peptide (in words) [2]: intermediate activity
internalization of intact M13 phage (and nuclear localization of protein complexes) [3]: able to facilitate internalization and nuclear localization of protein complexes as well as intact M13 phage
β-gal staining / internalization in murine tumors in vivo [16]: facilitate the internalization of β-gal into murine tumor cells in vivo
internalization of β-gal [18]: facilitate the internalization of β-gal into rabbit synovial cells

ARPILEHGSDKAT (ARPLEHGSDKAT; random peptide library) [reference compound]
transduction/transfer activity of the peptide (in words) [2]: does not have activity
level of uptake of β-gal into rabbit synovial lining [14]: no uptake

RQIKIWFQNRRMKWKK (antennepedia) [antennapedia peptide, reference compound]
β-gal staining / internalization in murine tumors in vivo [16]: facilitate the internalization of β-gal into murine tumor cells in vivo
